Measurements taken from article PMC2748827 (Nature, 2009).

Test system: A/Kawasaki/UTK-4/09 (H1N1)
Type: cell-based, influenza A virus (H1N1)

For `CCOC(=O)C1=C[C@@H](OC(CC)CC)[C@H](NC(C)=O)[C@@H](N)C1` [oseltamivir], the “susceptibility of virus in cell culture (in words)” value was “resistance”.
